In paper PMC10999543, “Identification of kinase modulators as host-directed therapeutics against intracellular methicillin-resistant Staphylococcus aureus” (Frontiers in Cellular and Infection Microbiology, 2024):
Where two headings read alike, the source gives them in different places.

Legend:
intracellular MRSA = assay type: cell-based, Staphylococcus aureus; details: for z-scoreMRSA+ mean: mean of 3 replicates; for z-scoreMRSA+ rep 1 / %GFP+ rep 1: replicate 1; for z-scoreMRSA+ rep 2 / %GFP+ rep 2: replicate 2; for z-scoreMRSA+ rep 3 / %GFP+ rep 3: replicate 3
Method: (§1) The cells were resuspended in cell culture medium without antibiotics, seeded with 10,000 cells/well into Costar flat-bottom 96-well plates (Corning, Amsterdam, the Netherlands), and were incubated overnight at 37°C/5% CO2. The next day, the bacteria were centrifuged at ≥1800 g for 15 min and resuspended in cold PBS + 5 mM ethylenediaminetetraacetic acid (EDTA). The number of CFUs present in the bacterial suspension was estimated from the optical density at 600 nm (OD600) by assuming 8x10^8 CFUs to be present in a bacterial suspension with OD600 = 1, based on prior titrations. The bacterial suspension was diluted in cell culture medium without antibiotics and added to the cells. Accuracy of the multiplicity of infection (MOI) was validated by plating serial dilutions of the MRSA inoculums on Difco TS agar plates (BD Biosciences). The calculated mean MOI throughout all experiments was 6.8 ± 4.6 (mean ± SD). Infected cells were centrifuged for 3 min at 150 g and incubated for 1 hour at 37°C/5% CO2. Next, the cells were incubated with fresh cell culture medium supplemented with 30 µg/ml gentamicin sulphate (Lonza BioWhittaker, Basel, Switzerland) for 15 min at 37°C/5% CO2 to kill residual extracellular bacteria. Infected cells were incubated overnight at 37°C/5% CO2 in cell culture medium in the presence of kinase inhibitors and 5 µg/ml gentamicin sulphate-containing medium to prevent the growth of extracellular bacteria. The solvent of the compounds, DMSO, was used at equal % v/v as a negative control. For the screen, each compound was tested in triplicate, on separate cell culture plates, resulting in triplicate values for each kinase inhibitor.
(§2) HeLa cells were harvested by trypsinization and fixed with 1% paraformaldehyde. Samples were measured on a FACSLyric with HTS extension (BD Biosciences). Flow cytometry data were analysed using FlowJo version 10 (TreeStar, Ashland, OR, USA). HeLa cells positive for GFP were gated to calculate the percentage of MRSA-infected cells. The cell count was used as surrogate readout of cell viability.
To identify potential “hit” compounds, the flow cytometry data were used to calculate standard z-scores using z = (x-μ)/σ – zneg, where x is total event count or the percent of GFP-positive cells from a single well, μ is the mean from wells of the plate, σ is the standard deviation of the plate and zneg is the mean z-score of the negative control of the plate (i.e., DMSO) ([Korbee et al., 2018]). To minimize the possibility that the presence of extreme values on a plate affected the z-scores, raw values that deviated two-fold from the negative controls were excluded when calculating plate means and standard deviations as used in the aforementioned formula. Compounds were considered a “hit” when z-scoreMRSA+ ≤ -2 and z-scoreHeLa ≥ -3 for cell count. In cases where compounds were screened twice, the average values were used to select hit compounds.

HeLa cells = assay: Compound screen by flow cytometry: HeLa cell count as surrogate readout of cell viability (z-scoreHeLa); assay type: cell-based, human; details: for z-scoreHeLa mean: mean of 3 replicates; for z-scoreHeLa rep 1 / cell count rep 1: replicate 1; for z-scoreHeLa rep 2 / cell count rep 2: replicate 2; for z-scoreHeLa rep 3 / cell count rep 3: replicate 3
Method: as §1, §2
To minimize the possibility that the presence of extreme values on a plate affected the z-scores, raw values that deviated two-fold from the negative controls were excluded when calculating plate means and standard deviations as used in the aforementioned formula. Compounds were considered a “hit” when z-scoreMRSA+ ≤ -2 and z-scoreHeLa ≥ -3 for cell count. In cases where compounds were screened twice, the average values were used to select hit compounds.

[1] = PKIS compound screen, Yes/No call
[2] = PKIS compound screen, Yes/No call (effect without cell death)
[3] = PKIS compounds raw data, MRSA-infected HeLa cells
[4] = PKIS compounds raw data, HeLa cell count
[5] = PKIS compound screen raw data, MRSA-infected HeLa cells
[6] = Yes/No: effect without cell death
[7] = compound screen, MRSA-infected HeLa cells
[8] = PKIS compound screen raw data, HeLa cell count
[9] = compound screen, HeLa cell count
[10] = PKIS compound screen, MRSA-infected HeLa cells
[11] = PKIS compound screen, Yes/No call on z-scoreMRSA+
[12] = PKIS compound screen, HeLa cell count
[13] = PKIS compound screen, Yes/No call on z-scoreHeLa

SMILES | effect (intracellular MRSA; [1]) | hit (intracellular MRSA; [2]) | z-scoreMRSA+ mean (intracellular MRSA; PKIS compound screen) | z-scoreMRSA+ rep 1 (intracellular MRSA; PKIS compound screen) | z-scoreMRSA+ rep 2 (intracellular MRSA; PKIS compound screen) | z-scoreMRSA+ rep 3 (intracellular MRSA; PKIS compound screen) | %GFP+ rep 1 (intracellular MRSA; [3]) [%] | %GFP+ rep 2 (intracellular MRSA; [3]) [%] | %GFP+ rep 3 (intracellular MRSA; [3]) [%] | cell death (HeLa cells; [1]) | z-scoreHeLa mean (HeLa cells; PKIS compound screen) | z-scoreHeLa rep 1 (HeLa cells; PKIS compound screen) | z-scoreHeLa rep 2 (HeLa cells; PKIS compound screen) | z-scoreHeLa rep 3 (HeLa cells; PKIS compound screen) | cell count rep 1 (HeLa cells; [4]) | cell count rep 2 (HeLa cells; [4]) | cell count rep 3 (HeLa cells; [4]) | %GFP+ rep 1 (intracellular MRSA; [5]) [%] | %GFP+ rep 2 (intracellular MRSA; [5]) [%] | %GFP+ rep 3 (intracellular MRSA; [5]) [%] | other results
c1ccc(COc2ccc(Nc3ncnc4ccc(-c5ccco5)cc34)cc2)cc1 [GW284372X] | No | No | -0.74 | -0.66 | -0.47 | -1.09 | 11.1 | 12.1 | 12.2 | No | 0.48 | -0.33 | 0.65 | 1.13 | 4410 | 5123 | 9333 |  |  |  | 
Cc1ccc(C)c(NC(=O)NCCNc2ccnc(Nc3ccc(F)cc3)n2)c1 [GSK1379878A] |  |  |  |  |  |  |  |  |  |  |  |  |  |  |  |  |  | 23.2 | 23.5 | 22.5 | effect (intracellular MRSA; Yes/No call from z-scoreMRSA+): No; hit (intracellular MRSA; [6]): No; z-scoreMRSA+ mean (intracellular MRSA; [7]): 0.88; z-scoreMRSA+ rep 1 (intracellular MRSA; [7]): 1.18; z-scoreMRSA+ rep 2 (intracellular MRSA; [7]): 1.12; z-scoreMRSA+ rep 3 (intracellular MRSA; [7]): 0.35; cell count rep 1 (HeLa cells; [8]): 23015; cell count rep 2 (HeLa cells; [8]): 22114; cell count rep 3 (HeLa cells; [8]): 18414; cell death (HeLa cells; Yes/No call from z-scoreHeLa): No; z-scoreHeLa mean (HeLa cells; [9]): -0.62; z-scoreHeLa rep 1 (HeLa cells; [9]): -1.22; z-scoreHeLa rep 2 (HeLa cells; [9]): -0.54; z-scoreHeLa rep 3 (HeLa cells; [9]): -0.10
CC(C)c1nc(-c2cccc(NS(=O)(=O)c3ccccc3)c2)c(-c2ccnc(Nc3ccc4c(c3)CN(C)CC4)n2)s1 [GSK1649598A] | No | No and Yes | -0.25 | -0.30 | -0.22 | -0.22 | 25.5 | 24.9 | 26.1 | No | -0.86 | -1.22 | -0.62 | -0.73 | 4018 | 5078 | 4439 | 10.0 | 11.1 | 12.2 | z-scoreMRSA+ mean (intracellular MRSA; [10]): -2.36; z-scoreMRSA+ rep 1 (intracellular MRSA; [10]): -2.35; z-scoreMRSA+ rep 2 (intracellular MRSA; [10]): -2.27; z-scoreMRSA+ rep 3 (intracellular MRSA; [10]): -2.47; effect (intracellular MRSA; [11]): Yes; cell count rep 1 (HeLa cells; [8]): 27349; cell count rep 2 (HeLa cells; [8]): 20392; cell count rep 3 (HeLa cells; [8]): 19957; z-scoreHeLa mean (HeLa cells; [12]): -0.37; z-scoreHeLa rep 1 (HeLa cells; [12]): -0.48; z-scoreHeLa rep 2 (HeLa cells; [12]): -0.84; z-scoreHeLa rep 3 (HeLa cells; [12]): 0.20; cell death (HeLa cells; [13]): No
Cc1cn2c(=O)cc(N3CCOCC3)nc2n1Cc1cccc(Cl)c1Cl [GSK2334006A] | No | No | -0.59 | -0.75 | -1.01 | -0.0127 | 23.2 | 20.8 | 27.2 | No | -0.32 | -0.18 | -0.55 | -0.25 | 5750 | 5179 | 5208 | 10.9 | 13.1 | 15.5 | z-scoreMRSA+ mean (intracellular MRSA; [10]): -1.80; z-scoreMRSA+ rep 1 (intracellular MRSA; [10]): -2.11; z-scoreMRSA+ rep 2 (intracellular MRSA; [10]): -1.72; z-scoreMRSA+ rep 3 (intracellular MRSA; [10]): -1.57; effect (intracellular MRSA; [11]): No; cell count rep 1 (HeLa cells; [8]): 38408; cell count rep 2 (HeLa cells; [8]): 33023; cell count rep 3 (HeLa cells; [8]): 28416; z-scoreHeLa mean (HeLa cells; [12]): 1.52; z-scoreHeLa rep 1 (HeLa cells; [12]): 1.39; z-scoreHeLa rep 2 (HeLa cells; [12]): 1.33; z-scoreHeLa rep 3 (HeLa cells; [12]): 1.85; cell death (HeLa cells; [13]): No
Cc1nc(-c2ccccc2)n2nc(NCCCN3CCOCC3)ncc12 [GW874091X] | No | No | 0.31 | 0.36 | 0.54 | 0.0338 | 14.3 | 15.1 | 16.0 | No | -0.73 | -1.54 | -0.37 | -0.27 | 3071 | 3785 | 6390 |  |  |  | 
CN(c1ccc2c(c1)nc(NCc1ccccc1)n2C)c1ccnc(Nc2ccc(CS(C)(=O)=O)cc2)n1 [GW811603A] |  |  |  |  |  |  | 29.9 | 27.8 | 24.6 |  |  |  |  |  | 3958 | 3626 | 4329 |  |  |  | effect (intracellular MRSA; Yes/No call from z-scoreMRSA+): No; hit (intracellular MRSA; [6]): No; z-scoreMRSA+ mean (intracellular MRSA; [7]): 1.02; z-scoreMRSA+ rep 1 (intracellular MRSA; [7]): 1.08; z-scoreMRSA+ rep 2 (intracellular MRSA; [7]): 1.26; z-scoreMRSA+ rep 3 (intracellular MRSA; [7]): 0.72; cell death (HeLa cells; Yes/No call from z-scoreHeLa): No; z-scoreHeLa mean (HeLa cells; [9]): -0.46; z-scoreHeLa rep 1 (HeLa cells; [9]): -0.28; z-scoreHeLa rep 2 (HeLa cells; [9]): -0.52; z-scoreHeLa rep 3 (HeLa cells; [9]): -0.57
